Assay results reported in ChEMBL document CHEMBL5625207, “RIPK2 inhibitors for disease therapy: Current status and perspectives” (Eur J Med Chem, 2023).
Blank lines part the entries; values can stand above or below the molecule they belong to.

How the values were obtained:
[1] = biological target: T1, Receptor-interacting serine/threonine-protein kinase 2 (Homo sapiens, UniProt O43353); assay: Inhibition of full length FLAG His-tagged RIPK2 (unknown origin) expressed in Baculovirus by fluorescence polarization assay
T1 sequence (O43353 whole entry): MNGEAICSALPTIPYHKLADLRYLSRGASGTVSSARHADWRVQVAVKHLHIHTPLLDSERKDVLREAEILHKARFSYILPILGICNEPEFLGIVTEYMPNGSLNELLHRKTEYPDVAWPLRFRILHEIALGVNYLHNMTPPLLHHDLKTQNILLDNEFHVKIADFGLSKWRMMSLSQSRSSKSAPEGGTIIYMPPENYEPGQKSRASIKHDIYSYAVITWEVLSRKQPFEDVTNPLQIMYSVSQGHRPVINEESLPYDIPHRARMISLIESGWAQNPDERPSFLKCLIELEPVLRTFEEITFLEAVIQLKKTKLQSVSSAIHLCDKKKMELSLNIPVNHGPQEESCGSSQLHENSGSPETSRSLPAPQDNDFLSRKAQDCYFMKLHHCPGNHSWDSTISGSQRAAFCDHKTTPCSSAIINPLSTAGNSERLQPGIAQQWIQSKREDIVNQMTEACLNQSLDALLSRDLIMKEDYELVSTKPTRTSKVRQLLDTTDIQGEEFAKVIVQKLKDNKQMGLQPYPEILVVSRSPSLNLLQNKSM

[2] = biological target: T1, Receptor-interacting serine/threonine-protein kinase 2; assay: Inhibition of RIPK2 (unknown origin)
[3] = biological target: T1, Receptor-interacting serine/threonine-protein kinase 2; assay: Inhibition of RIPK2 (unknown origin) by ADP-Glo assay
[4] = biological target: T1, Receptor-interacting serine/threonine-protein kinase 2; assay: Inhibition of RIPK2 (unknown origin) expressed in Escherichia coli
[5] = biological target: T1, Receptor-interacting serine/threonine-protein kinase 2; assay: Inhibition of RIPK2 (unknown origin) using (CRRKSLVGTPYWMAPE) peptide as substrate pre-incubated for 60 mins followed by substrate addition and measured after 2 hrs by fluorescence polarization assay
[6] = biological target: von Hippel-Lindau disease tumor suppressor/Receptor-interacting serine/threonine-protein kinase 2 (Homo sapiens, UniProt O43353+P40337); assay: Protac activity at VHL/RIPK2 in human THP-1 cells assessed as RIPK2 degradation measured after 16 hrs by Western blot analysis; assay type: cell-based
von Hippel-Lindau disease tumor suppressor/Receptor-interacting serine/threonine-protein kinase 2, sequence (O43353 whole entry): as above
von Hippel-Lindau disease tumor suppressor/Receptor-interacting serine/threonine-protein kinase 2, sequence (P40337 whole entry): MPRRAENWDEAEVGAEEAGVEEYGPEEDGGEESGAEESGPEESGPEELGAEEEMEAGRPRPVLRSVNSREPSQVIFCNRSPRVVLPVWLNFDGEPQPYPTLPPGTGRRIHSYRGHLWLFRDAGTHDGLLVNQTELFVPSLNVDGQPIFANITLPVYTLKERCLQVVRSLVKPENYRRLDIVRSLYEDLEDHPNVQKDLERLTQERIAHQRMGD

IC50 [1]: 0.6 nM | IC50 [2]: 0.6 nM
SMILES: Cc1ccc(-c2cn([C@H]3CC[C@@H](N)CC3)c3ncnc(N)c23)c(F)c1

IC50 [1]: 5.1 nM | IC50 [3]: 5.1 nM
SMILES: c1cc(-c2ccc3ncnc(Nc4ccc5scnc5c4)c3c2)ccn1

IC50 [1]: 14.1 nM | IC50 [4]: 14.1 nM
SMILES: c1cc2cc(n1)NCCOCCNc1ccc3ncc-2n3n1

IC50 [1]: 10 nM | IC50 [5]: 1010 nM
SMILES: Cc1ccc(-c2nn(C(C)(C)CN(C)C)c3ncnc(N)c23)cc1

IC50 [6]: 2 nM
SMILES: Cc1ncsc1-c1ccc(CNC(=O)C2C[C@H](O)CN2C(=O)[C@@H](NC(=O)COCCOCCOCCOCCOc2cc3nccc(Nc4ccc5scnc5c4)c3cc2S(=O)(=O)C(C)(C)C)C(C)(C)C)cc1 (some centres undefined)
